Experimental data: publication PMC3740683, “ML212: A small-molecule probe for investigating fluconazole resistance mechanisms in Candida albicans” (Beilstein Journal of Organic Chemistry, 2013)
In brackets after ≈: the same amount, converted by molar mass.

Tests used:
[1] = test system: Hsp90-dependent signaling pathway; test: Yeast-reporter assay, Hsp90-dependent signaling pathway; assay type: cell-based; details: Saccharomyces cerevisiae
[2] = Plasma stability, murine plasma; assay type: in vitro ADME; details: 5 h incubation
[3] = Secondary assay 3: fibroblast toxicity; assay type: cell-based; details: mouse, NIH-3T3 fibroblasts, murine 3T3 fibroblasts
Procedure: (§1) 11) Read relative fluorescence intensity (RFU) of wells on a standard plate reader as […]
(§2) measure of relative fungal growth. EnVision (Perkin Elmer) plate reader settings: […]
Secondary assay 3: fibroblast toxicity
Clear, flat-bottom, black, 384-well plates (Corning Catalog no. 3712BC Lot no.
(§3) 35808016); geldanamycin (AG Scientific Catalog no. G-1047) 15 mM stock solution in […]
DMSO; fluconazole (Sequoia Research Ltd.) 2 mg/mL stock solution in PBS; Alamar […]
Blue (AG Scientific Catalog no. DAL1100, Lot no. 151016SA); PBS w/o calcium and […]
magnesium (Cellgro Catalog no. 21-040-CV)
Optimem medium (Invitrogen Catalog no. 31985-070; Lot no. 548536); 2.5% (v/v) fetal […]
bovine serum (Hyclone Catalog no.30071.03; Lot no. ARF26748); 1% (v/v) Pen/Strep […]
Test strain: NIH-3T3 mammalian fibroblasts (ATCC CRL No. 1658) […]
1) Plate cells in 384-well plates at 6,000 cells/well in 20 µL assay medium.
2) Incubate plates overnight at 37 °C under 5% CO2.
1) After overnight culture, pin compounds into wells at 100 nL/well using the CyBio […]
CyBi-Well pinning instrument.
2) After pinning compounds, add 20 µL of assay medium supplemented with […]
fluconazole to each well. […]
6) Read the relative fluorescence intensity (RFU) of wells on a standard plate reader as a measure of relative cell growth. EnVision (Perkin Elmer) plate reader […]
setup: Ex 544 nm, Em […], bandwidth12 nm, top read.

[4] = Plasma stability, human plasma; assay type: in vitro ADME; details: 5 h incubation
C. albicans CaCi-2 = test: Secondary assay 2: CaCi-2 in the absence of fluconazole; assay type: cell-based; details: Candida albicans, CACI2; no fluconazole, 48 h incubation; read-out: IC50 against C. albicans in the absence of fluconazole
Procedure: 5) Then, pin 100 nL of test compound from compound plates into assay plates using a CyBi-Well pin tool.
6) Dispense 20 µL/well of culture into the assay media in all wells.
7) Incubate the plates in a humidified (90% humidity) Liconic incubator at 37 °C without agitation for 48 hours.
8) Dilute Alamar Blue 1:40 in Ca/Mg-free PBS.
9) To all plates, add 5 µL/well of the diluted Alamar Blue to plates to a final dilution […]
10) Incubate the plates for 2 hours.
11) Read the relative fluorescence intensity (RFU) of wells on a standard plate reader as a measure of relative fungal growth. EnVision (Perkin Elmer) plate reader setup: Ex 544 nm, Em 590 nm, bandwidth 12 nm, top read.
Secondary assay 2: CaCi-2 in the absence of fluconazole
Clear, flat-bottom, black 384-well plates (Corning Catalog no. 3712BC; Lot no.
as §3
2) Read OD 600 of 1 mL of fungal culture in a cuvette using a standard optical density reader (Eppendorf BioPhotometer Plus), with growth medium as a […]
measured) × (desired final volume of inoculum) × 0.3 = volume of fungal culture […]
this yields a calculated starting OD of the fungal inoculum of 0.00015. […]
as §1, §2

Solubility in PBS = assay type: physicochemical; details: aqueous buffer

With `COC(=O)Cn1nc(-c2cccc(OC)c2)c2ccccc21` [Compound 36] the IC50 [1] was greater than 26 µM, the “remaining after incubation in plasma” value [2] was less than 10% and the IC50 at 48 h [3] was greater than 26 µM. For the same compound, the “remaining after incubation in plasma” value [4] was less than 10%, the IC50 (C. albicans CaCi-2) was greater than 26 µM and the solubility (Solubility in PBS) was 55 µM (≈ 16.3 µg/mL).
